Legend:
[1] = system: Oilseed Rape; test: Test C pre-/postemergence: oilseed rape; type: in vivo
From the text: (§1) Seeds of plant species selected from blackgrass (Alopecurus myosuroides), bromegrass, downy (downy bromegrass, Bromus tectorum), foxtail, green (green foxtail, Setaria viridis), ryegrass, Italian (Italian ryegrass, Lolium multiflorum), winter wheat (Triticum aestivum), wild oat (Avena fatua), galium (catchweed bedstraw, Galium aparine), bermudagrass (Cynodon dactylon), surinam grass (Brachiaria decumbens), cocklebur (common cocklebur, Xanthium strumarium), corn (Zea mays), large crabgrass (Digitaria sanguinalis), woolly cupgrass (Eriochloa villosa), foxtail, giant (giant foxtail, Setaria faberii), goosegrass (Eleusine indica), johnsongrass (Sorghum halepense), kochia (Kochia scoparia), lambsquarters (Chenopodium album), morningglory (Ipomoea coccinea), nightshade (eastern black nightshade, Solanum ptycanthum), nutsedge, yellow (yellow nutsedge, Cyperus esculentus), pigweed (Amaranthus retroflexus), ragweed (common ragweed, Ambrosia elation), soybean (Glycine max), common (oilseed) sunflower (Helianthus annuus), Russian thistle (Salsola kali) and velvetleaf (Abutilon theophrasti) were planted into a blend of loam soil and sand and treated preemergence with test chemicals formulated in a non-phytotoxic solvent mixture which included a surfactant.
(§2) At the same time, plants selected from these crop and weed species and also barley (winter barley, Hordeum vulgare), canarygrass (Phalaris minor), chickweed (common chickweed, Stellaria media) windgrass (Apera spica-venti) and deadnettle (henbit deadnettle, Lamium amplexicaule) were planted in pots containing Redi-Earth® planting medium (Scotts Company, 14111 Scottslawn Road, Marysville, Ohio 43041) comprising spaghnum peat moss, vermiculite, wetting agent and starter nutrients and treated with postemergence applications of test chemicals formulated in the same manner. Plants ranged in height from 2 to 18 cm (1- to 4-leaf stage) for postemergence treatments.
(§3) Treated plants and controls were maintained in a greenhouse for 13 to 15 days, after which time all species were compared to controls and visually evaluated. Plant response ratings, summarized in Table C, are based on a scale of 0 to 100 where 0 is no effect and 100 is complete control. A dash (-) response means no test result.

[2] = system: Waterhemp; test: Test C preemergence: waterhemp; type: in vivo; conditions: 62 g ai/ha, scale of 0 to 100, 0 is no effect, 100 is complete control
[3] = system: Waterhemp; test: Test C pre-/postemergence: waterhemp; type: in vivo
[4] = system: Barnyardgrass; test: Test C postemergence: barnyardgrass; type: in vivo, Echinochloa crus-galli
Outline: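 Plants at the 1- to 4-leaf stage (2 to 18 cm tall), grown in pots of peat moss/vermiculite planting medium, received postemergence applications of the formulated test chemicals. After 13 to 15 days in a greenhouse, injury was scored visually versus controls from 0 (no effect) to 100 (complete control).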

[5] = system: Oilseed Rape; test: Test C postemergence: oilseed rape; type: in vivo, Brassica napus
[6] = system: Oilseed Rape; test: Test C postemergence: oilseed rape; type: in vivo
From the text: as §2, §3

[7] = system: Oilseed Rape; test: Test C preemergence: oilseed rape; type: in vivo; conditions: scale of 0 to 100, 0 is no effect, 100 is complete control
From the text: as §1, §3

[8] = system: Waterhemp; test: Test C postemergence: waterhemp; type: in vivo, Amaranthus rudis
From the text: as §1, §2, §3

[9] = system: Barnyardgrass; test: Test C preemergence: barnyardgrass; type: in vivo, Echinochloa crus-galli
From the text: as §1, §3

[10] = system: barnyardgrass (Echinochloa crus-galli); test: Test C pre-/postemergence: barnyardgrass; type: in vivo; conditions: scale 0 to 100, 0 no effect, 100 complete control
From the text: as §1, §2, §3

[11] = Preemergence, 250 g ai/ha, scale 0 to 100, 0 no effect, 100 complete control
[12] = 31 g ai/ha, scale 0 to 100 (0 no effect, 100 complete control)
[13] = 62 g ai/ha, scale 0 to 100 (0 no effect, 100 complete control)
[14] = 125 g ai/ha, scale 0 to 100, 0 no effect, 100 complete control
[15] = 31 g ai/ha, scale of 0 to 100, 0 is no effect, 100 is complete control
[16] = 62 g ai/ha, scale of 0 to 100, 0 is no effect, 100 is complete control
[17] = Postemergence, 16 g ai/ha, scale 0 to 100, 0 no effect, 100 complete control
[18] = Postemergence, 31 g ai/ha, scale 0 to 100 (0 no effect, 100 complete control)
[19] = 250 g ai/ha, scale 0 to 100 (0 no effect, 100 complete control)

Row | Structure (SMILES) | Plant response rating, Oilseed Rape [1, 11] | Plant response rating, Waterhemp [2] | Plant response rating, Waterhemp [3, 11] | Plant response rating, Barnyardgrass [4, 12] | Plant response rating, Barnyardgrass [4, 13] | Plant response rating, Barnyardgrass ([4]; 250 g ai/ha, scale 0 to 100) | Plant response rating, Oilseed Rape [5, 14] | Plant response rating, Oilseed Rape [6, 12] | Plant response rating, Oilseed Rape [6, 13] | Plant response rating, Oilseed Rape ([6]; 250 g ai/ha, scale 0 to 100) | Plant response rating, Oilseed Rape ([7]; 31 g ai/ha) | Plant response rating, Oilseed Rape ([7]; 62 g ai/ha) | Plant response rating, Waterhemp [8, 14] | Plant response rating, Barnyardgrass [9, 15] | Plant response rating, Barnyardgrass [9, 16] | Plant response rating, Barnyardgrass [9, 14] | Plant response rating, Barnyardgrass ([10]; Preemergence, 250 g ai/ha) | also measured
1 | CCc1nn(-c2ccc(C(F)(F)F)cc2)nc1Cc1ccnc(C(F)(F)F)c1 [Compound 155] | 100 | 100 | 100 | 25 | 35 | 75 | 95 | 90 | 90 | 95 | 50 | 90 | 98 | 40 | 90 | 98 | 100 | 
2 | Cc1nn(-c2ccc(F)c(C(F)(F)F)c2)nc1Cc1ccnc(C(F)(F)F)c1 [Compound 156] | 98 | 100 | 100 | 20 | 30 | 55 | 95 | 80 | 90 | 95 | 10 | 60 | 98 | 85 | 90 | 90 | 100 | 
3 | FCc1nn(-c2ccc(F)cc2)nc1Oc1ccnc(C(F)(F)F)c1 [Compound 160] |  | 100 |  | 20 | 30 |  | 95 | 95 | 95 |  | 5 | 80 | 98 | 35 | 90 | 100 |  | Plant response rating, Oilseed Rape [1, 17]: 85; Plant response rating, Waterhemp [3, 17]: 95; Plant response rating, Barnyardgrass ([9]; 16 g ai/ha, scale 0 (no effect) to 100 (complete control)): 5; Plant response rating, Barnyardgrass ([10]; Postemergence, 16 g ai/ha): 15
4 | CCOc1nn(-c2ccc(Cl)cc2)nc1Cc1ccnc(C(F)(F)F)c1 [Compound 188] | 100 | 100 |  | 75 | 95 | 100 | 90 |  | 90 |  |  | 70 | 100 |  | 100 | 100 | 100 | Plant response rating, Oilseed Rape [1, 18]: 40; Plant response rating, Waterhemp [3, 18]: 70; Plant response rating, Oilseed Rape [5, 19]: 95; Plant response rating, Waterhemp [8, 19]: 100; Plant response rating, Barnyardgrass ([9]; 31 g ai/ha, scale 0 (no effect) to 100 (complete control)): 80

— patent publication US9302999B2, “Substituted triazoles as herbicides” (E. I. DU PONT DE NEMOURS AND COMPANY, priority 2012, dated 2016)
